This is an account of results in article PMC9228535, “Antistaphylococcal Activities and ADME-Related Properties of Chlorinated Arylcarbamoylnaphthalenylcarbamates” (Pharmaceuticals, 2022).

In this assay the test system is THP-1 cells. In words: In vitro cytotoxicity assay (WST-1). Format: cell-based. To be noted: Homo sapiens, THP-1, 24 h.

The IC50 is the concentration needed to halve the response being measured. A lower IC50 goes with inhibition by little substance.

`CCNC(=O)Oc1c(C(=O)Nc2cc(Cl)c(Cl)cc2Cl)ccc2ccccc12` [Compound 2, 2-[N-(2,4,5-Trichlorophenyl)carbamoyl]naphthalen-1-yl ethyl carbamate] yielded a half-maximal inhibitory concentration (IC50) of 2850 ± 170 nM.
